ChEMBL document CHEMBL1201862, “PubChem BioAssay data set” (2004)
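Test compounds were applied to cells in 96-well plates for 48 hours at 5 doses. GI50 = concentration required for 50% inhibition of growth.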 Activity calls are given as the source filed them. Cut-off read from the data, not from the text of the source: active = GI50 up to about 1.1 µM and inactive = higher.

Columns and labels:
Assay in all cases: growth of human tumour cells (NCI), 48 h
[1] = tested on: OVCAR-8
[2] = tested on: SK-MEL-5
[3] = tested on: U-251
[4] = tested on: OVCAR-5
[5] = tested on: MOLT-4
[6] = tested on: HCC 2998
[7] = tested on: NCI/ADR-RES
[8] = tested on: 786-0
[9] = tested on: Hs-578T
[10] = tested on: UO-31
[11] = tested on: CAKI-1
[12] = tested on: OVCAR-4
[13] = tested on: KM12
[14] = tested on: TK-10
[15] = tested on: PC-3
[16] = tested on: IGROV-1
[17] = tested on: DU-145
[18] = tested on: NCI-H522
[19] = tested on: SK-OV-3
[20] = tested on: RXF 393

Measured: GI50

CC1=C(C(=O)NCC(C)O)CC(C(=O)NCC(C)O)=C(C)N1 (stereo not given)
inactive: [1] > 100 µM | [2] > 100 µM | [3] > 100 µM | [4] > 100 µM | [5] > 100 µM | [6] > 100 µM | [7] > 100 µM | [8] > 100 µM | [9] > 100 µM | [10] > 100 µM | [11] > 100 µM | [12] > 100 µM | [13] > 100 µM | [14] > 100 µM | [15] > 100 µM | [16] > 100 µM | [17] > 100 µM | [18] > 100 µM | [19] > 100 µM | [20] > 100 µM

COC(=O)/C=C\C(C#N)(C#N)/N=C/c1cc(Br)cs1
inactive: [1] 3.84 µM | [2] 6.3 µM | [3] 13.9 µM | [4] 6.84 µM | [5] 1.89 µM | [6] 16 µM | [7] 15.7 µM | [8] 1.94 µM | [9] 22.8 µM | [10] 2.14 µM | [11] 2.96 µM | [12] 7.91 µM | [13] 21 µM | [14] 3.11 µM | [15] 5.09 µM | [16] 3.44 µM | [17] 7.31 µM | [18] 1.5 µM | [19] 19.5 µM | [20] 2.27 µM

O=C(O)Cc1cccc2c(=O)cc(-c3ccccc3)oc12 [MITOFLAXONE]
inactive: [1] > 175 µM | [2] 230 µM | [3] > 250 µM | [4] 242 µM | [5] > 209 µM | [6] > 250 µM | [7] 222 µM | [8] 71.4 µM | [9] 149 µM | [10] 147 µM | [11] 142 µM | [12] 185 µM | [13] 240 µM | [14] > 250 µM | [15] > 250 µM | [16] > 250 µM | [17] > 940 µM | [18] 228 µM | [19] 242 µM | [20] 244 µM
